Results from patent US20250368627A1, “PYRAZOLESULFONAMIDES AS ANTITUMOR AGENTS” (Peloton Therapeutics, Inc., a fully owned subsidiary of …, priority 2019, published 2025).

What was measured:
[1] = target: T1, DDB1DB/DCAF15 and RBM39 R1R2 complex (Homo sapiens, UniProt Q14498+Q66K64); experiment: DCAF15 RBM39 Complex Formation Assay (FRET); format: binding; details: FRET ratio Em 665/Em 615, incubated overnight at 4° C.
T1 construct: Amino acids 150 to 331 of RBM39 were cloned into pGEX4T3; GST (from vector pGEX4T3); TEV cleavage site (N); made in house; host or cells: DDB1DB/His-DCAF15: baculovirus/Sf9 co-expression; RBM39 R1R2: E. coli (pGEX4T3)
T1 sequence (Q66K64 whole entry, the tested form may be a part): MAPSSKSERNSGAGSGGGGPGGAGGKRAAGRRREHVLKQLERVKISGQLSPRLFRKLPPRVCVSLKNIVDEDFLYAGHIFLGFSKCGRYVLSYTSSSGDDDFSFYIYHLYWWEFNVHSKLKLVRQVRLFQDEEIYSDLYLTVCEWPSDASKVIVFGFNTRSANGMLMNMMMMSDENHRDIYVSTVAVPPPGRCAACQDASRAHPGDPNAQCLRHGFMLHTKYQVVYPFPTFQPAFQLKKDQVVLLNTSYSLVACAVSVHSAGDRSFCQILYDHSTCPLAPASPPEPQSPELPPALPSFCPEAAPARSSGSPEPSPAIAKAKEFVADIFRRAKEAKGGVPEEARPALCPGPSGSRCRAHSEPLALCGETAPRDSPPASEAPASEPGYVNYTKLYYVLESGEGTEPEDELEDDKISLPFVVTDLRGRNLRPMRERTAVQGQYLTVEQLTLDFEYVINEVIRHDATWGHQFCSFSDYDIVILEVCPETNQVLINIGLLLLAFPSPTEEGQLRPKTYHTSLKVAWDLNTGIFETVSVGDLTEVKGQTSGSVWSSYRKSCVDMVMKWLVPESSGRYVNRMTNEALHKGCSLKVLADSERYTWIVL
T1 sequence (Q14498 150-331): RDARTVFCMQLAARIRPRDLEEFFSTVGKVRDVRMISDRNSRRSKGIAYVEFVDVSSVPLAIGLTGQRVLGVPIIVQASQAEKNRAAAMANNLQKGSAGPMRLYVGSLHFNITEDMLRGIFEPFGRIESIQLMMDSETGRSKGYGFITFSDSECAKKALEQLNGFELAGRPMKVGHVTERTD
T1 sequence (Q16531 with tags, fused parts or gaps DEL396-708 partner): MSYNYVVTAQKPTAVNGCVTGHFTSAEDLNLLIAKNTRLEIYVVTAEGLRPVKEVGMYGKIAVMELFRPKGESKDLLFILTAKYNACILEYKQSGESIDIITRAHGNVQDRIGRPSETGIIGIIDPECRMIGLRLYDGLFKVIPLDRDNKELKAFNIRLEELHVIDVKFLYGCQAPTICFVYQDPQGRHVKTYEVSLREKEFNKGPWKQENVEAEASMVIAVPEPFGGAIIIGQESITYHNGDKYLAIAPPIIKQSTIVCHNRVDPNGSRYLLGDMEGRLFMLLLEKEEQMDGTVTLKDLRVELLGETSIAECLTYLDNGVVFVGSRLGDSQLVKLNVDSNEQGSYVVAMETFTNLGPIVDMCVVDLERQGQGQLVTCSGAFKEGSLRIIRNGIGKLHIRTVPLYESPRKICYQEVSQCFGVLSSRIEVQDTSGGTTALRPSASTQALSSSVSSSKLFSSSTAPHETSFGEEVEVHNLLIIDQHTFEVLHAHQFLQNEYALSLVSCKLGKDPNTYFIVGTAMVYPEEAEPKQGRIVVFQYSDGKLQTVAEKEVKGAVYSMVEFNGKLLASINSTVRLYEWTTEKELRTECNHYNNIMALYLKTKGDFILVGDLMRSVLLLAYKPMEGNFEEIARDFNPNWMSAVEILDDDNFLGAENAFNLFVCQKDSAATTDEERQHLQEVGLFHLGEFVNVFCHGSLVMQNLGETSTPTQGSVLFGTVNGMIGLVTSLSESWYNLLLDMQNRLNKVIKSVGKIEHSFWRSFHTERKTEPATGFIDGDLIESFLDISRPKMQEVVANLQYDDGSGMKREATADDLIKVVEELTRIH
From the text: LANCE Eu-W1024 Anti-6×His and SureLight Allophycocyanin-anti-FLAG antibodies were purchased from Perkin Elmer. Human DDB1DB and His-tagged DCAF15 were co-expressed in baculovirus/sf9 system. While full length DDB1 contains three 7-bladed propellers termed A, B, and C, DDB1DB has only propeller A (amino acids 1 to 395) and C (amino acids 709-1140). The His-tagged DCAF15 contains six histidine residues directly preceding the DCAF15 sequence without any linker. An RBM39 fragment containing RRM1 and RRM2 was expressed in E. coli. Amino acids 150 to 331 of RBM39 were cloned into pGEX4T3 with an N-terminal TEV cleavage site and a C-terminal FLAG tag.
A compound of the present disclosure in DMSO (2 μL) was transferred to a 384-well assay plate. Compound was added in 14 points, 3-fold serial dilution (1 μM to 0.6 pico molar) in DMSO. […] FRET assay buffer (25 mM HEPES, pH 7.5, 100 mM NaCl, […], 0.5 mM TCEP, 0.005% Tween-20, 0.2 nM Eu—W1024 Anti-6×His, 50 nM SureLight Allophycocyanin-anti-FLAG, 20 nM DDB1DB/DCAF15, 50 nM RBM39 R1R2) was added and the resulting solution was incubated overnight at 4° C. The plate was placed in a plate reader (Spark 10) with excitation at 1=340 nm and emissions monitored at 1=665 nm and 1=615 nm, and the FRET ratio (Em 665/Em 615) was determined. Low signal controls containing no compound and high signal controls containing 10 mM indisulam were measured for each plate.
EC50 values were calculated using Dotmatics template equation for 4-parameter fit. Results are expressed as % formation using the following equation: […]

[2] = test system: HCT116 human colorectal carcinoma cells; experiment: CellTiter-Glo Luminescent Cell Viability Assay; format: cell-based; details: HCT-116, 72 h, 3 days
Protocol: HCT116 human colorectal carcinoma cells were used in these experiments. HCT116 cells were obtained from ATCC. CellTiter-Glo® Luminescent Cell Viability Assay Reagent was obtained from Promega.
About 3,000 cells were seeded into 96-well plate with […] of media (DMEM supplemented with 10% FBS, 100 units penicillin, and […] streptomycin per mL) the day before the experiment. For compound treatment, the master plate was prepared as follows: 100× compound stocks were prepared in a 96-well plate by 1 to 3 serial dilutions of 0.5 mM DMSO stocks. Each master plate contained serial dilution of 8 compounds, including the control compound E7820. […] of 100× compound stock was added to each well of the assay plate to give final concentrations of […]. Each concentration was tested in triplicate. After 3 days, cell viability was determined using CellTiter-Glo Luminescent Cell Viability Assay Reagent following the manufacturer's recommended protocol. Briefly, […] of CellTiter-Glo reagent was added to each well of the assay plate and the contents were mixed for 3 minutes at 600 rpm on a shaker (Thermomixer R). The plate was immediately placed in a plate reader (Synergy 2) and the luminescence signal (0.5 second per well integration time) was determined. IC50 values were calculated using Dotmatics software.

Compound | IC50 [1] | EC50 [2]
Cn1cc(S(=O)(=O)Nc2cccc3c(Cl)c[nH]c23)cn1 [Compound 1, N-(3-chloro-1H-indol-7-yl)-1-methyl-1H-pyrazole-4-sulfonamide] | < 250 nM | 250 to 1000 nM
Cc1nn(C)c(C)c1S(=O)(=O)Nc1cccc2c(Cl)c[nH]c12 [Compound 2, N-(3-chloro-1H-indol-7-yl)-1,3,5-trimethyl-pyrazole-4-sulfonamide] | > 1000 nM | 
CCn1cc(S(=O)(=O)Nc2cccc3c(Cl)c[nH]c23)cn1 [Compound 4, N-(3-chloro-1H-indol-7-yl)-1-ethyl-pyrazole-4-sulfonamide] | < 250 nM | 
Cc1nn(C)cc1S(=O)(=O)Nc1cccc2c(Cl)c[nH]c12 [Compound 5, N-(3-chloro-1H-indol-7-yl)-1,3-dimethyl-pyrazole-4-sulfonamide] | 250 to 1000 nM | 
O=S(=O)(Nc1cccc2c(Cl)c[nH]c12)c1cnn(C(F)F)c1 [Compound 6, N-(3-chloro-1H-indol-7-yl)-1-(difluoromethyl)pyrazole-4-sulfonamide] | < 250 nM | 250 to 1000 nM
O=S(=O)(Nc1cccc2c(Cl)c[nH]c12)c1cnn(CC(F)F)c1 [Compound 7, N-(3-chloro-1H-indol-7-yl)-1-(2,2-difluoroethyl)pyrazole-4-sulfonamide] | < 250 nM | 250 to 1000 nM
O=S(=O)(Nc1cccc2c(Cl)c[nH]c12)c1cnn(C2CCOC2)c1 (stereo not shown) [Compound 8, N-(3-chloro-1H-indol-7-yl)-1-tetrahydrofuran-3-yl-pyrazole-4-sulfonamide] | < 250 nM | 
CS(=O)(=O)CCn1cc(S(=O)(=O)Nc2cccc3c(Cl)c[nH]c23)cn1 [Compound 9, N-(3-chloro-1H-indol-7-yl)-1-(2-methylsulfonylethyl)pyrazole-4-sulfonamide] | < 250 nM | 250 to 1000 nM
O=S(=O)(Nc1cccc2c(Cl)c[nH]c12)c1cn[nH]c1 [Compound 10, N-(3-chloro-1H-indol-7-yl)-1H-pyrazole-4-sulfonamide] | < 250 nM | 
Cc1ccc(NS(=O)(=O)c2cnn(C(F)F)c2)c2[nH]cc(C#N)c12 [Compound 11, N-(3-cyano-4-methyl-1H-indol-7-yl)-1-(difluoromethyl)pyrazole-4-sulfonamide] | < 250 nM | 250 to 1000 nM
CC(C)(C)OC(=O)N1CC(n2cc(S(=O)(=O)Nc3cccc4c(Cl)c[nH]c34)cn2)C1 [Compound 12, tert-butyl 3-[4-[(3-chloro-1H-indol-7-yl)sulfamoyl]pyrazol-1-yl]azetidine-1-carboxylate] | < 250 nM | 250 to 1000 nM
O=S(=O)(Nc1cccc2c(Cl)c[nH]c12)c1cnn(CCO)c1 [Compound 13, N-(3-chloro-1H-indol-7-yl)-1-(2-hydroxyethyl)pyrazole-4-sulfonamide] | < 250 nM | 250 to 1000 nM
N#CCn1cc(S(=O)(=O)Nc2cccc3c(Cl)c[nH]c23)cn1 [Compound 14, N-(3-chloro-1H-indol-7-yl)-1-(cyanomethyl)pyrazole-4-sulfonamide] | < 250 nM | > 1000 nM
O=S(=O)(Nc1cccc2c(Cl)c[nH]c12)c1cnn(-c2ncc(Cl)cc2F)c1 [Compound 15, 1-(5-chloro-3-fluoro-2-pyridyl)-N-(3-chloro-1H-indol-7-yl)pyrazole-4-sulfonamide] | < 250 nM | > 1000 nM
NC(=O)Cn1cc(S(=O)(=O)Nc2cccc3c(Cl)c[nH]c23)cn1 [Compound 16, 2-[4-[(3-chloro-1H-indol-7-yl)sulfamoyl]pyrazol-1-yl]acetamide] | < 250 nM | 250 to 1000 nM

Other lines, results leading:

IC50 [1] | EC50 [2] | Compound
< 250 nM | 250 to 1000 nM | NC(=O)Cn1cc(S(=O)(=O)n2cc(S(=O)(=O)Nc3cccc4c(Cl)c[nH]c34)cn2)cn1 [Compound 17, 2-[4-[4-[(3-chloro-1H-indol-7-yl)sulfamoyl]pyrazol-1-yl]sulfonylpyrazol-1-yl]acetamide]
250 to 1000 nM | > 1000 nM | O=S(=O)(Nc1cccc2c(Cl)c[nH]c12)c1cnn(C2CNC2)c1 [Compound 18, 1-(azetidin-3-yl)-N-(3-chloro-1H-indol-7-yl)pyrazole-4-sulfonamide]
< 250 nM | 250 to 1000 nM | O=S(=O)(Nc1cccc2c(Cl)c[nH]c12)c1cnn(S(=O)(=O)c2cn[nH]c2)c1 [Compound 19, N-(3-chloro-1H-indol-7-yl)-1-(1H-pyrazol-4-ylsulfonyl)pyrazole-4-sulfonamide]
250 to 1000 nM | > 1000 nM | O=S(=O)(Nc1cccc2c(Cl)c[nH]c12)c1cnn(C2CCOCC2)c1 [Compound 20, N-(3-chloro-1H-indol-7-yl)-1-tetrahydropyran-4-yl-pyrazole-4-sulfonamide]
250 to 1000 nM | > 1000 nM | O=S(=O)(Nc1cccc2c(Cl)c[nH]c12)c1cnn(-c2ccc(F)cn2)c1 [Compound 21, N-(3-chloro-1H-indol-7-yl)-1-(5-fluoro-2-pyridyl)pyrazole-4-sulfonamide]
> 1000 nM |  | O=S(=O)(c1cnn(CC2CC2)c1)N(CC1CC1)c1cccc2c(Cl)c[nH]c12 [Compound 48, N-(3-chloro-1H-indol-7-yl)-N,1-bis(cyclopropylmethyl)pyrazole-4-sulfonamide]
> 1000 nM |  | COCCN(c1cccc2c(Cl)c[nH]c12)S(=O)(=O)c1cnn(CCOC)c1 [Compound 50, N-(3-chloro-1H-indol-7-yl)-N,1-bis(2-methoxyethyl)pyrazole-4-sulfonamide]
> 1000 nM |  | Cn1cc(S(=O)(=O)Nc2ccc(F)c3cc[nH]c23)cn1 [Compound 55, N-(4-fluoro-1H-indol-7-yl)-1-methyl-pyrazole-4-sulfonamide]
> 1000 nM |  | O=S1(=O)CC(n2cc(S(=O)(=O)Nc3cccc4c(Cl)c[nH]c34)cn2)C1 [Compound 58, N-(3-chloro-1H-indol-7-yl)-1-(1,1-dioxothietan-3-yl)pyrazole-4-sulfonamide]
250 to 1000 nM |  | Cc1ccc(NS(=O)(=O)c2cnn(C)c2C#N)c2[nH]cc(C#N)c12 [Compound 131, 5-cyano-N-(3-cyano-4-methyl-1H-indol-7-yl)-1-methyl-pyrazole-4-sulfonamide]
250 to 1000 nM |  | Cn1ncc(S(=O)(=O)Nc2ccc(Cl)c3c(C#N)c[nH]c23)c1C#N [Compound 132, N-(4-chloro-3-cyano-1H-indol-7-yl)-5-cyano-1-methyl-pyrazole-4-sulfonamide]
< 250 nM |  | N#Cc1n[nH]c2c(NS(=O)(=O)c3cnn([C@H](CO)CF)c3)ccc(Cl)c12 [Compound 310, N-(4-chloro-3-cyano-1H-indazol-7-yl)-1-[(1R)-1-(fluoromethyl)-2-hydroxy-ethyl]pyrazole-4-sulfonamide]
< 250 nM |  | Cc1ccc(NS(=O)(=O)c2cnn([C@H](CO)CF)c2)c2[nH]cc(C#N)c12 [Compound 313, N-(3-cyano-4-methyl-1H-indol-7-yl)-1-[(1R)-1-(fluoromethyl)-2-hydroxy-ethyl]pyrazole-4-sulfonamide]
< 250 nM |  | Cc1ccc(NS(=O)(=O)c2cnn([C@H](CO)CF)c2)c2[nH]nc(C#N)c12 [Compound 314, N-(3-cyano-4-methyl-1H-indazol-7-yl)-1-[(1R)-1-(fluoromethyl)-2-hydroxy-ethyl]pyrazole-4-sulfonamide]
< 250 nM |  | Cc1ccc(NS(=O)(=O)c2cnn(C(C)(C)CO)c2N)c2[nH]cc(C#N)c12 [Compound 315, 5-amino-N-(3-cyano-4-methyl-1H-indol-7-yl)-1-(2-hydroxy-1,1-dimethyl-ethyl)pyrazole-4-sulfonamide]
< 250 nM |  | CC(C)(CO)n1ncc(S(=O)(=O)Nc2ccc(Cl)c3c(C#N)c[nH]c23)c1N [Compound 316, 5-amino-N-(4-chloro-3-cyano-1H-indol-7-yl)-1-(2-hydroxy-1,1-dimethyl-ethyl)pyrazole-4-sulfonamide]
